Experimental data reported in US4916145A, “Substituted n-[(pyridyl)alkyl]aryl-carboxamide” (Hoffmann-La Roche Inc., priority 1987, dated 1990).

Columns and labels:
[1] = target: T1, Thromboxane Synthase (TXA2 Syn.) (Homo sapiens, UniProt P24557); experiment: TXA2 Synthesis Inhibition (thromboxane synthase, microsomal fractions from human platelets); assay type: biochemical; conditions: human platelet microsomes, 10 μM 14C-PGH2, 22°, 2 minutes
T1 construct: microsomal fractions from human platelets as enzyme source; from tissue; host or cells: microsomal fractions from human platelets
T1 sequence (P24557 1-533): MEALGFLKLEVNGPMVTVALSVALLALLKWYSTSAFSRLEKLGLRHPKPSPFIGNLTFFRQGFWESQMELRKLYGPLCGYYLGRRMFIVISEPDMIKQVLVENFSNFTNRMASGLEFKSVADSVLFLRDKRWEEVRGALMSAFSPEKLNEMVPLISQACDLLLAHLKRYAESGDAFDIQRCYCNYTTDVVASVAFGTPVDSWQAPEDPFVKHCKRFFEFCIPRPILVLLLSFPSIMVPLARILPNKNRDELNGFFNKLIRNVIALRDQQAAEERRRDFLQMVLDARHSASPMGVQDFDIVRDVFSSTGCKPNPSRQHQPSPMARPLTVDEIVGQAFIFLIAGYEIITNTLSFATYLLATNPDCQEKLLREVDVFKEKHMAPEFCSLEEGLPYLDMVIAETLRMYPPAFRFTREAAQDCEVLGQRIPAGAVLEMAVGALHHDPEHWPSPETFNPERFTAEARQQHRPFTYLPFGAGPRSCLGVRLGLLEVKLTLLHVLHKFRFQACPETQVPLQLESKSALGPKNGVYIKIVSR
Procedure: Thromboxane synthase inhibitory activity is measured by following the conversion of ^14 C-[…] using microsomal fractions from human platelets as enzyme source. In the aqueous incubation medium. The TXA2 decomposes rapidly into TXB2 . The amount of TXA2 syn. is adjusted so that under the conditions of the assay approximately 80-90% of the substrate. PGH2, is converted to product in control tubes. To prepare ^14 C-PGH2, ^14 C-AA(50-60mCi/mmole; Rose Chem.) is incubated with sheep seminal vesicular gland microsomes for 1.5 min. at 37° and then the ^14 C-PGH2 is extracted with diethylether, purified on columns of Sephadex LH-20 or silicic acid, and stored in acetone at -70° C. Incubations are done as follows. Sufficient ^14 C-PGH2 to yield a final substrate concentration of 10 μM ( 30,000 cpm) is added to the incubation tubes and then the acetone is removed under nitrogen. The tubes are placed in an ice bath and then 215 μl of ice cold phosphate buffered saline, 10 μof ethanol (control) or of test drug in ethanol, and 25 μl of the microsomal suspension are added with mixing in that order as rapidly as possible. The tubes are incubated at 22° for 2 minutes, the reaction is stopped and then the radioactive products and the unconverted PGH2 are extracted and analyzed by thin layer chromatography. The amount of ^14 C-PGH2 converted to products is analyzed by thin layer chromatography. The amount of ^14 C-PGH2 converted to products was used as a measure of TXA synthase activity. Inhibitors were tested initially at a concentration of 100 μM.

[2] = tested on: PAF-Induced Platelet Count Decrease; experiment: PAF-Induced Platelet Count Decrease; assay type: in vivo, guinea pig; conditions: for inhibition in vivo at 3 mg/kg: Cavia porcellus, Platelet, 0.25 h, iv, 15 minutes pretreatment time, read-out: PAF-Induced Platelet Count Decrease % Inhibition, i.v.
Procedure: Male Hartley guinea pigs weighing between 500 and 900 grams were fed standard guinea pig chow and tap water ad libitum. PAF was solubilized in ethanol and stored as a 2 mM stock solution at -70° C. The stock solution of PAF was diluted to […] in Tris buffer pH 7.4 and 0.1% BSA for all experiments.
Guinea pigs were anesthetized with urethane (1.6 g/kg, i.p.). A catheter (PE50) was introduced into the right carotid artery for withdrawing blood. A second catheter PE10) was introduced into the jugular vein for injecting drugs and for administering the PAF challenge (75 ng/kg, i.v.). A control blood sample was obtained and platelets were counted in a whole blood platelet analyzer. PAF was then given and blood samples were taken 15, 30, and 60 seconds after the challenge for platelet counts. Fifteen minutes later, selected concentrations of the test compound were solubilized in DMSO and injected intravenously into a group of 4-6 animals. Only one concentration of the test drug was used in each animal group. Fifteen minutes after drug injection, blood samples were taken before and 15, 30, and 60 sec after the PAF challenge, and analyzed for platelet number.
Animals were anesthetized with sodium pentobarbital (35 mg/kg. i.p.) and the carotid artery and jugular vein were cannulated as described above. The cannulae were exteriorized at the base of the neck and the animals were allowed to recover. Conscious, unrestrained guinea pigs which were allowed to recover from surgery for at least 18 hours were used in the experiments. The animals were challenged two times with PAF (120 ng/kg, i.v.); the first to establish a consistent response to PAF and the second to serve as a control from the PAF challenge. Blood samples were taken before and 15, 30, and 45 seconds after PAF challenge and platelets were counted. Thirty minutes after the control PAF challenge, the animals were orally dosed with either gum acacia or the test compound. Animals were then challenged with PAF at 1, 3, 5, and 24 hours after the administration of the drug.
The % change, i.e., the difference in platelet number before and after PAF challenge was calculated by: [formula] The % activity of drug was then determined by
Statistical significance (p≤0.05) of the difference between the mean PAF control and mean drug treated activity was determined with the pared Students's t-test.

[3] = target: T2, PAF binding, dog platelets (Canis lupus familiaris, UniProt A0A8I3NSH0); experiment: PAF Binding Assay (3H-PAF binding to washed dog platelets); conditions: 10 minutes at room temperature
T2 sequence (A0A8I3NSH0 1-343): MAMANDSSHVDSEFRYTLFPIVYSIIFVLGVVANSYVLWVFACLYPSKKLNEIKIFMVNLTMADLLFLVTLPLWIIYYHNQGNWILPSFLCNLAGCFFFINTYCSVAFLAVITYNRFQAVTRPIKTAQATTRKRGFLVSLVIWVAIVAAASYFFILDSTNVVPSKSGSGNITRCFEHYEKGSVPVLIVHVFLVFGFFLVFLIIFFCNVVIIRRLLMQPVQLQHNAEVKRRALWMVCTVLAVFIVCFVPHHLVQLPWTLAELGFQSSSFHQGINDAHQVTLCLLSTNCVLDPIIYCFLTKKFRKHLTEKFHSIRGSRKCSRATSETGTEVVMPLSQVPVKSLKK
Procedure: The binding assay was performed in 400 μl polyethylene microcentrifuge tubes (Beckman) containing 50 μl of an oil mixture of 2 parts Siliconol AR200 (Serva): 1 part Silicone Fluid (Arthur H. Thomas). Buffer, standards, or analogs 150 μl total volume) were added to the tubes. Radiolabelled ^3 H-PAF (50 μl) was then added to the tubes. The reaction was started by the addition of 50 μl of dog platelets (2×10^7 platelets). The tubes were capped, inverted several times to mix, and incubated for 10 minutes at room temperature. The platelets were separated from the incubation mixture by centrifuging 1 minute in a Beckman Microfuge B centrifuge. The tip of the microfuge tube was cut off, and the platelets were washed out of the tip with 200 μl of 50% methanol (Burdick and Jackson). Aquasol (NEN, 10 ml) was added and the radioactivity in the samples was determined using an LS 8100 Beckman liquid scintillation counter linked to a Techtran tape recorder. Data was processed through an in-house computer system. Alternatively, radioactivity was determined using a Searle Mark III liquid scintillation counter linked to a Iso-Data microprocessor.
Blood was collected from anesthesized or unanesthesized dogs into 5ml plastic centrifuge tubes containing 3.8% sodium citrate as the anticoagulant (1 volume of citrate/9 volumes of blood). The red cells were removed by centrifugation for 15 minutes at 600 rpm (100-125 g) at room temperature. An aliquot of the supernatant platelet rich Plasma (PRP) was saved for cell counting and the remainder was acidified to pH 6.5 with 0.15M citric acid. The platelet pellet was obtained after a 10 minute centrifugation at 2000 rpm (1000 g) at room temperature. Washed platelets were prepared by resuspending the platelet pellet once with PBS containing 1 mM EDTA, centrifuging as noted, and then resuspending the platelets in 0.1% BSA-PBS. An aliquot of the washed platelets was counted, platelets used for binding assays were diluted to 2×10^7 platelets/assay tube (4×10^8 platelets/ml).

[4] = tested on: PAF-Induced Platelet Count Decrease; experiment: PAF-Induced Platelet Count Decrease; assay type: in vivo, guinea pig; conditions: 30 mg/kg, 2 hours, pretreatment
[5] = tested on: PAF-Induced Bronchoconstriction; experiment: PAF-Induced Bronchoconstriction Assay; assay type: in vivo, guinea pig; conditions: Cavia porcellus; for inhibition in vivo at 1 mg/kg: 1 min, 1 mg/kg iv, 1 minute pretreatment; for inhibition in vivo at 50 mg/kg: po, 2 hours pretreatment
Procedure: The in vivo ability of compounds to inhibit PAF-induced bronchoconstriction in guinea pigs was assessed by the intravenous and oral routes of administration. The intravenous technique utilized male guinea pigs (Hartley strain, Charles River) weighing 400-600 g. Animals were anesthetized with urethane (2 g/kg) intraperitoneally and a polyethylene cannula was inserted into the jugular vein for intravenous drug administration. Tracheal pressure ([…]) was recorded from a Statham pressure transducer (P 32 AA). Propranolol was administered 5 minutes prior to challenge with PAF. Two minutes later spontaneous breathing was arrested with succinylcholine chloride (1.2 mg/kg) administered intravenously, and the animals were ventilated with a Harvard (Model 680) small animal respirator set at 40 breaths/min and 4.0 cc stroke volume. Control vehicle or test drug was administered through the cannula into the jugular vein 1 minute before the animals were challenged with a maximum constrictory dose of PAF (1.0 μg/kg) given intravenously. The change in tracheal pressure was averaged for four control and four drug-treated animals and percent inhibition was calculated.
For determination of oral activity, animals were dosed with test compound or vehicle two hours prior to challenge with PAF (1.0 μg/kg, i.v.).
The change in tracheal pressure is determined by subtracting the steady state baseline achieved after administration of succinylcholine from the peak bronchoconstriction seen after challenge with PAF. The mean change in tracheal pressure is calculated for each test compound and compared to the mean change in tracheal pressure for the control animals to give the percent inhibition of bronchoconstriction. The standard error is calculated as the standard error of the mean.

SMILES	IC50 [1]	PAF-Induced Platelet Count Decrease % Inhibition, po ([2]; 100 mg/kg, po, 3 hours, pretreatment)	inhibition in vivo at 3 mg/kg [2]	IC50 [3]	PAF-Induced Platelet Count Decrease % Inhibition, po [4]	inhibition in vivo at 1 mg/kg [5]	inhibition in vivo at 50 mg/kg [5]
COc1ccc(-c2ccc(C(=S)NCCCCc3cccnc3)cc2)cc1OC [3',4'-Dimethoxy-N-[4-(3-pyridinyl)butyl][1,1'-biphenyl]-4-carbothioamide]	225 nM	53%	15%	–	–	–	–
Cc1ccc(-c2ccc(C(=O)NCCCCc3cccnc3)cc2)cc1C [3',4'-Dimethyl-N-[4-(3-pyridinyl)butyl][1,1-biphenyl]-4-carboxamide]	125 nM	–	–	700 nM	–	–	–
COc1ccc(-c2ccc(C(=S)NC(C)CCCc3cccnc3)cc2)cc1OC (racemic) [rac.-3',4'-Dimethoxy-N-[1-methyl-4-(3-pyridinyl)butyl][1,1'-biphenyl]-4-carbothioamide]	100 to 1000 nM	–	24%	60 nM	48%	86 ± 7%	37 ± 9%
Cc1ccc(-c2ccc(C(=O)NC(C)CCCc3cccnc3)cc2)cc1C (racemic) [(rac.)-3',4'-Dimethyl-N-[1-methyl-4-(3-pyridinyl)butyl][1,1'-biphenyl]-4-carboxamide]	100 to 1000 nM	–	12%	200 nM	–	–	–
Cc1ccc(-c2ccc(-c3nnnn3CCCCCCc3cccnc3)cc2)cc1C [3-[6-[5-(3',4'-Dimethyl-[1,1'-biphenyl]-4-yl)-1H-tetrazol-1-yl]hexyl]pyridine]	100 to 1000 nM	–	0%	200 nM	–	18 ± 13%	–
O=C(NCCCCc1cccnc1)c1ccc(-c2cccc(O)c2)cc1 [3'-Hydroxy-N-[4-(3-pyridinyl)-butyl][1,1'-biphenyl]-4-carboxamide]	< 100 nM	–	–	300 nM	–	–	–
COc1cccc(-c2ccc(C(=O)NCCCCc3cccnc3)cc2)c1 [3'-Methoxy-N-[4-(3-pyridinyl)butyl][1,1'-biphenyl]-4-carboxamide]	25 nM	–	–	280 nM	–	70 ± 10%	55 ± 17%
Cc1ccc(-c2ccc(C(=S)NC(C)CCCc3cccnc3)cc2)cc1C (racemic) [rac.-3',4'-Dimethyl-N-[1-methyl-4-(3-pyridinyl)butyl][1,1'-biphenyl]-4-carbothioamide]	–	–	28%	110 nM	–	4 ± 4%	–
COc1cccc(-c2ccc(C(=O)N[C@H](C)CCCc3cccnc3)cc2)c1 [(R)-3'-Methoxy-N-[1-methyl-4-(3-pyridinyl)butyl]-[1,1'-biphenyl]-4-carboxamide]	–	–	17%	20 nM	–	–	–
O=C(NCCCCc1cccnc1)c1ccc(-c2ccccc2)cc1 [N-[4-(3-Pyridinyl)butyl]-[1,1'-biphenyl]-4-carboxamide]	100 nM	–	–	–	–	42 ± 7%	–
Cc1ccc(-c2ccc(-c3nnnn3CCCCc3cccnc3)cc2)cc1C [3-[4-[5-(3',4'-Dimethyl-[1,1'-biphenyl]-4-yl)-1H-tetrazol-1-yl]butyl]pyridine]	> 1000 nM	–	–	800 nM	–	57 ± 4%	–
Cc1ccc(-c2ccc(C(=O)NCCCCCCc3cccnc3)cc2)cc1C [3',4'-Dimethyl-N-[6-(3-pyridinyl)hexyl][1,1'-biphenyl]-4-carboxamide]	600 nM	–	27%	450 nM	–	–	–
COc1cccc(-c2ccc(C(=S)NC(C)CCCc3cccnc3)cc2)c1 (racemic) [(rac.)-3'-Methoxy-N-(1-methyl-4-(3-pyridinyl)butyl][1,1'-biphenyl]-4-carbothioamide]	100 to 1000 nM	–	6%	120 nM	–	16 ± 14%	–
COc1ccc(-c2cc(C)c(C(=O)NCCCCc3cccnc3)c(C)c2)cc1OC [3',4'Dimethoxy-3,5-dimethyl-N-[4-(3-pyridinyl)butyl][1,1'-biphenyl]-4-carboxamide]	–	–	14%	60 nM	–	17 ± 11%	–
